Measurements from ChEMBL document CHEMBL3045226, “Synthesis and anti-tubercular evaluation of some novel pyrazolo[3,4-d]pyrimidine derivatives” (2012).

Assays:
[1] = test system: Mycobacterium tuberculosis; experiment: Antimicrobial activity against Mycobacterium tuberculosis H37Rv at < 6.25 ug/ml; format: functional
[2] = test system: Mycobacterium tuberculosis; experiment: Antimicrobial activity against Mycobacterium tuberculosis H37Rv; format: functional

| SMILES | inhibition (INH) [1] [%] | MIC [2] [µg/mL] |
| --- | --- | --- |
| CC1=NN(c2ccc3c(c2)Nc2ccccc2S3)C2N=C(S)NC(c3ccccc3O)C12 (stereo unspecified) | 93 | < 6.25 |
| CC1=NN(c2ccc3c(c2)Nc2ccccc2S3)C2N=C(S)NC(c3ccc([N+](=O)[O-])cc3)C12 (stereo unspecified) | 54 | > 6.25 |
| CC1=NN(c2ccc3c(c2)Nc2ccccc2S3)C2N=C(S)NC(c3ccccc3[N+](=O)[O-])C12 (stereo unspecified) | 96 | < 6.25 |
| COc1ccc(C2NC(S)=NC3C2C(C)=NN3c2ccc3c(c2)Nc2ccccc2S3)cc1 (stereo unspecified) | 63 | > 6.25 |
| CC1=NN(c2ccc3c(c2)Nc2ccccc2S3)C2N=C(S)NC(c3ccccc3Cl)C12 (stereo unspecified) | 91 | < 6.25 |
| CC1=NN(c2ccc3c(c2)Nc2ccccc2S3)C2N=C(S)NC(c3ccc(Cl)cc3)C12 (stereo unspecified) | 74 | > 6.25 |
| CC1=NN(c2ccc3c(c2)Nc2ccccc2S3)C2N=C(S)NC(c3ccc(O)cc3)C12 (stereo unspecified) | 68 | > 6.25 |
| CC1=NN(c2ccc3c(c2)Nc2ccccc2S3)C2N=C(S)NC(c3ccccc3)C12 (stereo unspecified) | 75 | > 6.25 |
